Test results published in patent US20030166018A1, “Methods for identifying agents that modulate mast cell degranulation” (priority 2002, published 2003).

System: mast cells
Test: Radioprotection of mast cells from γ-irradiation-induced apoptosis (anti-annexin V and propidium iodide staining)
Type: cell-based
Conditions: cultured mast cells from wild type and SWAP-70 ko/ko mice (similar degree in both); 100 ng/ml SCF, with or without IL-3; irradiated 0-160 Gy; FIG. 3B
Source text: Analysis of peritoneal fluid by Percol gradient centrifugation used step-gradients (increments 0.005) with densities of Percol in PBS, 2% FCS from 1.07 to 1.09. Cells accumulating in the pellet and those banding at 1.09 and 1.085 densities stained intensively with toluidine blue and with berberine sulfate and are regarded as mature mast cells. Assays for apoptosis used staining of cells with propidium iodide or anti annexin V antibodies as described (Ref. 15). Immunofluorescence and Western blotting were performed as described (Ref. 24).
Mast cells from wild type and SWAP-70^ko/ko mice were cultured in the presence or absence of 100 ng/ml SCF, with or without IL-3, and irradiated with various doses (0-160 Gy). Subsequently, apoptosis was measured by staining with anti-annexin V and propidium iodine. […] This elevated sensitivity was confirmed in a series of irradiation experiments in which mast cells were compared to other primary cell types, including thymocytes, preB cells, and fibroblasts. All of these non-mast cell were of identical sensitivity for γ-irradiation regardless of their SWAP-70 genotype. No increased sensitivity of SWAP-70 deficient mast cells for UV irradiation was observed.

stem cell factor [SCF] was tested, and the “protection from γ-irradiation-induced apoptosis” value was 3 fold.
